{
  "source": "patent US20200115698A1",
  "about": "“PHARMACEUTICAL COMBINATION FOR TREATMENT OF FABRY DISEASE AND USE THEREOF” (MEIJI PHARMACEUTICAL UNIVERSITY, priority 2017, published 2020)",
  "key": {"[1]": {"biological_target": "T1, α-NAGA mutant (Homo sapiens, UniProt P17050, A191L/S188E)", "T1 sequence (P17050 with tags, fused parts or gaps S188E/A191L)": "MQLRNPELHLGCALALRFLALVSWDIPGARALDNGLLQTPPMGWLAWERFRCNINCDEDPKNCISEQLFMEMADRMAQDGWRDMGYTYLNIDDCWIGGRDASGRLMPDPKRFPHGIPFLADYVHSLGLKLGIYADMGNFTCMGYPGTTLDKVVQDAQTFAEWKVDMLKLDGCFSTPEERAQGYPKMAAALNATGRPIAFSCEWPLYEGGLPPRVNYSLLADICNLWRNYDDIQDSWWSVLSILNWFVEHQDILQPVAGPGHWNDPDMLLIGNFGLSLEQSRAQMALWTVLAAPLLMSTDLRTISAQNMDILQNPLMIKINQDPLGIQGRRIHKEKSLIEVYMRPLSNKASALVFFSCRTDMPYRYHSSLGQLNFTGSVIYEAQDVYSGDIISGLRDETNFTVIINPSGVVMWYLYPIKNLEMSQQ", "assay": "Heat stability test carried out by measuring enzyme activity", "assay_type": "biochemical", "conditions": "1 or 10 μM DGJ, FIG. 3", "protocol": "1 μM or 10 μM of DGJ was added to 10 μg/ml of an α-NAGA mutant solution which had been prepared by dissolving an α-NAGA mutant in a 10 mM sodium phosphate buffer (pH 7.5) or a 25 mM sodium acetate buffer (pH 5.2) (the total amount was 100 μl). Then, incubation was carried out at 42° C. for the solution using the 10 mM sodium phosphate buffer (pH 7.5) and at 55° C. for the solution using the 25 mM sodium acetate buffer (pH 5.2). Then, the incubated solution was sampled by 10 μl at points in time which were respectively 0 and 60 minutes after the start of the incubation. Each of the samples thus obtained was immediately added to 40 μl of a 0.1 M phosphate-citrate buffer (pH 4.6) in which a 5 mM substrate was dissolved, and enzyme activity was measured. Remaining activity is indicated based on an assumption that an enzyme activity value after 0 minutes is 100%. FIG. 3 is a view showing a result of heat stability test for confirming inhibitory activity of DGJ with respect to an α-NAGA mutant."}, "[2]": {"system": "cultivated fibroblast derived from a Fabry disease model mouse", "assay": "Simultaneous addition of α-NAGA mutant and DGJ to cultivated fibroblast derived from Fabry disease model mouse", "assay_type": "cell-based", "conditions": "1 μg/mL α-NAGA mutant plus 0-500 μM DGJ, 24 hours; FIG. 5", "protocol": "A cultivated fibroblast derived from a Fabry disease model mouse was cultured at 37° C. under a 5% carbon dioxide environment with use of a DMEM medium to which a 10% fetal calf serum and an antibiotic substance had been added. First, concentration dependence of DGJ with respect to uptake efficiency of an α-NAGA mutant was analyzed. The cells were seeded to a 12-well plate at 1.0×10^5 cells/well. The medium was exchanged with an F-10 medium that contained 1 μg/mL of an α-NAGA mutant, any of concentrations (0, 1, 10, 100, and 500 μM) of DGJ, a 10% fetal calf serum, and an antibiotic substance, and cultivation was carried out for 24 hours. […] The homogenate thus obtained was subjected to centrifugal separation under conditions of 4° C. and 12,000 rpm, and the obtained supernatant liquid was used as samples for enzyme activity measurement, protein quantification, and Western blotting. […] Then, released 4-methylumbelliferone was measured at an excitation wavelength of 355 nm and at a fluorescence wavelength of 460 nm with use of Wallac 1420 ARVO MX Multilabel Counter (Perkin Elmer, Waltham, Mass.). Protein quantification was carried out with Micro BCA method (Micro BCA (trademark) Protein Assay Reagent Kit: Pierce) while using a concentration of bovine serum albumin (Albumin standard: Pierce Biotechnology, Inc., Rockford, Ill.) as a standard. […]"}},
  "data": [
    {"smiles": "OCC1NCC(O)C(O)C1O", "note": "[DGJ, (2R,3S,4R,5S)-2-(hydroxymethyl)piperdine-3,4,5-triol]", "values": [
      {"measurement": "heat stability of the α-NAGA mutant (remaining activity after 60 minutes)", "setting": "[1]; acidic condition pH 5.2, 55° C., higher improvement than at neutral pH", "result": "heat stability of the α-NAGA mutant was improved"},
      {"measurement": "heat stability of the α-NAGA mutant (remaining activity after 60 minutes)", "setting": "[1]; neutral condition pH 7.5, 42° C.", "result": "heat stability of the α-NAGA mutant was improved"},
      {"measurement": "α-NAGA mutant enzyme activity in cells", "setting": "[2]", "result": "enzyme activity was improved"}
    ]}
  ]
}
